Key:
Test in all cases: relative viability (nuclei count vs DMSO), 5 days (fraction); higher = more cells survive
HCC-44 = test system: HCC-44
Procedure, shortened: (§1)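 Relative viability divides the nuclei count in treated wells by that in vehicle wells. Lung cancer cell lines were seeded in 1536-well plates, dosed by pin tool the next day, and fixed and stained after 5 days in one step with final 0.05% Triton X-100, 1% formaldehyde and 1 ug/ml Hoechst. Dosing was a single drug or a fixed anchor-drug dose plus five library-drug doses (not always all listed) in √10 steps, and values are medians of duplicate plates imaged at 4×.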

LC-2-ad = test system: LC-2-ad
Procedure, shortened: as §1

NCI-H2170 = test system: NCI-H2170
Procedure, shortened: as §1

NCI-H838 = test system: NCI-H838
Procedure, shortened: as §1

NCI-H1395 = test system: NCI-H1395
Procedure, shortened: as §1

HOP-62 = test system: HOP-62
Procedure, shortened: as §1

NCI-H1993 = test system: NCI-H1993
Procedure, shortened: as §1

NCI-H1666 = test system: NCI-H1666
Procedure, shortened: as §1

NCI-H322M = test system: NCI-H322M
Procedure, shortened: as §1

NCI-H1355 = test system: NCI-H1355
Procedure, shortened: as §1

NCI-H1651 = test system: NCI-H1651
Procedure, shortened: as §1

201T = test system: 201T
Procedure, shortened: as §1

NCI-H2085 = test system: NCI-H2085
Procedure, shortened: as §1

ABC-1 = test system: ABC-1
Procedure, shortened: as §1

NCI-H23 = test system: NCI-H23
Procedure, shortened: as §1

CAL-12T = test system: CAL-12T
Procedure, shortened: as §1

LCLC-103H = test system: LCLC-103H
Procedure, shortened: as §1

NCI-H2347 = test system: NCI-H2347
Procedure, shortened: as §1

NCI-H647 = test system: NCI-H647
Procedure, shortened: as §1

Question: With `O=c1[nH]c2ccccc2n1C1CCN(CCCC(c2ccc(F)cc2)c2ccc(F)cc2)CC1` [Pimozide] + NC(=O)Nc1cc(-c2cccc(F)c2)sc1C(=O)N[C@H]1CCCNC1 [AZD7762] (partner 0.2 µM) as the molecule, how does the relative viability (HCC-44; first compound 0.08 µM) read?
Answer: Its relative viability is 1.01.

Question: What about the relative viability (HCC-44; first compound 0.253 µM) of the same molecule?
Answer: Its relative viability is 0.992.

Question: And the relative viability (HCC-44; first compound 0.8 µM)?
Answer: The relative viability was 0.849.

Question: What about the relative viability (HCC-44; first compound 2.53 µM) of the same molecule?
Answer: Its relative viability is 0.98.

Question: What about the relative viability (HCC-44; first compound 8 µM) of the same molecule?
Answer: Its relative viability is 0.971.

Question: What about the relative viability (LC-2-ad; first compound 0.08 µM) of the same molecule?
Answer: Its relative viability is 0.78.

Question: What about the relative viability (LC-2-ad; first compound 0.253 µM) of the same molecule?
Answer: Its relative viability is 0.794.

Question: And the relative viability (LC-2-ad; first compound 0.8 µM)?
Answer: The relative viability was 0.736.

Question: What about the relative viability (LC-2-ad; first compound 2.53 µM) of the same molecule?
Answer: The relative viability was 0.812.

Question: What about the relative viability (LC-2-ad; first compound 8 µM) of the same molecule?
Answer: The relative viability was 0.798.

Question: And the relative viability (NCI-H2170; first compound 0.08 µM)?
Answer: Its relative viability is 0.875.

Question: And the relative viability (NCI-H2170; first compound 0.253 µM)?
Answer: Its relative viability is 0.828.

Question: And the relative viability (NCI-H2170; first compound 0.8 µM)?
Answer: Its relative viability is 0.85.

Question: What about the relative viability (NCI-H2170; first compound 2.53 µM) of the same molecule?
Answer: Its relative viability is 0.915.

Question: And the relative viability (NCI-H2170; first compound 8 µM)?
Answer: Its relative viability is 0.802.

Question: And the relative viability (NCI-H838; first compound 0.08 µM)?
Answer: Its relative viability is 0.937.

Question: What about the relative viability (NCI-H838; first compound 0.253 µM) of the same molecule?
Answer: Its relative viability is 0.946.

Question: And the relative viability (NCI-H838; first compound 0.8 µM)?
Answer: Its relative viability is 0.908.

Question: What about the relative viability (NCI-H838; first compound 2.53 µM) of the same molecule?
Answer: The relative viability was 0.938.

Question: What about the relative viability (NCI-H838; first compound 8 µM) of the same molecule?
Answer: The relative viability was 0.966.

Question: What about the relative viability (NCI-H1395; first compound 0.08 µM) of the same molecule?
Answer: Its relative viability is 0.369.

Question: What about the relative viability (NCI-H1395; first compound 0.253 µM) of the same molecule?
Answer: Its relative viability is 0.42.

Question: What about the relative viability (NCI-H1395; first compound 0.8 µM) of the same molecule?
Answer: Its relative viability is 0.417.

Question: And the relative viability (NCI-H1395; first compound 2.53 µM)?
Answer: Its relative viability is 0.389.

Question: And the relative viability (NCI-H1395; first compound 8 µM)?
Answer: Its relative viability is 0.394.

Question: And the relative viability (HOP-62; first compound 0.08 µM)?
Answer: The relative viability was 0.634.

Question: And the relative viability (HOP-62; first compound 0.253 µM)?
Answer: The relative viability was 0.477.

Question: And the relative viability (HOP-62; first compound 2.53 µM)?
Answer: Its relative viability is 0.661.

Question: And the relative viability (HOP-62; first compound 8 µM)?
Answer: The relative viability was 0.517.

Question: What about the relative viability (NCI-H1993; first compound 0.08 µM) of the same molecule?
Answer: The relative viability was 0.701.

Question: And the relative viability (NCI-H1993; first compound 0.253 µM)?
Answer: Its relative viability is 0.752.

Question: And the relative viability (NCI-H1993; first compound 0.8 µM)?
Answer: The relative viability was 0.544.

Question: And the relative viability (NCI-H1993; first compound 2.53 µM)?
Answer: The relative viability was 0.675.

Question: What about the relative viability (NCI-H1993; first compound 8 µM) of the same molecule?
Answer: Its relative viability is 0.729.

Question: What about the relative viability (NCI-H1666; first compound 0.08 µM) of the same molecule?
Answer: The relative viability was 0.803.

Question: What about the relative viability (NCI-H1666; first compound 0.253 µM) of the same molecule?
Answer: The relative viability was 0.831.

Question: And the relative viability (NCI-H1666; first compound 0.8 µM)?
Answer: The relative viability was 0.76.

Question: And the relative viability (NCI-H1666; first compound 2.53 µM)?
Answer: Its relative viability is 0.747.

Question: And the relative viability (NCI-H1666; first compound 8 µM)?
Answer: The relative viability was 0.881.

Question: And the relative viability (NCI-H322M; first compound 0.08 µM)?
Answer: Its relative viability is 0.502.

Question: What about the relative viability (NCI-H322M; first compound 0.253 µM) of the same molecule?
Answer: The relative viability was 0.538.

Question: What about the relative viability (NCI-H322M; first compound 0.8 µM) of the same molecule?
Answer: The relative viability was 0.58.

Question: What about the relative viability (NCI-H322M; first compound 2.53 µM) of the same molecule?
Answer: Its relative viability is 0.625.

Question: What about the relative viability (NCI-H322M; first compound 8 µM) of the same molecule?
Answer: Its relative viability is 0.387.

Question: And the relative viability (NCI-H1355; first compound 0.08 µM)?
Answer: Its relative viability is 0.757.

Question: And the relative viability (NCI-H1355; first compound 0.253 µM)?
Answer: Its relative viability is 0.732.

Question: What about the relative viability (NCI-H1355; first compound 0.8 µM) of the same molecule?
Answer: The relative viability was 0.701.

Question: What about the relative viability (NCI-H1355; first compound 2.53 µM) of the same molecule?
Answer: The relative viability was 0.641.

Question: What about the relative viability (NCI-H1355; first compound 8 µM) of the same molecule?
Answer: Its relative viability is 0.761.

Question: And the relative viability (NCI-H1651; first compound 0.08 µM)?
Answer: The relative viability was 0.453.

Question: And the relative viability (NCI-H1651; first compound 0.253 µM)?
Answer: The relative viability was 0.423.

Question: What about the relative viability (NCI-H1651; first compound 0.8 µM) of the same molecule?
Answer: The relative viability was 0.41.

Question: What about the relative viability (NCI-H1651; first compound 2.53 µM) of the same molecule?
Answer: Its relative viability is 0.433.

Question: And the relative viability (NCI-H1651; first compound 8 µM)?
Answer: Its relative viability is 0.469.

Question: What about the relative viability (201T; first compound 0.08 µM) of the same molecule?
Answer: The relative viability was 0.602.

Question: What about the relative viability (201T; first compound 0.253 µM) of the same molecule?
Answer: The relative viability was 0.615.

Question: And the relative viability (201T; first compound 0.8 µM)?
Answer: Its relative viability is 0.541.

Question: What about the relative viability (201T; first compound 2.53 µM) of the same molecule?
Answer: The relative viability was 0.537.

Question: And the relative viability (201T; first compound 8 µM)?
Answer: Its relative viability is 0.652.

Question: And the relative viability (NCI-H2085; first compound 0.08 µM)?
Answer: Its relative viability is 0.937.

Question: And the relative viability (NCI-H2085; first compound 0.253 µM)?
Answer: The relative viability was 0.971.

Question: What about the relative viability (NCI-H2085; first compound 0.8 µM) of the same molecule?
Answer: Its relative viability is 0.922.

Question: What about the relative viability (NCI-H2085; first compound 2.53 µM) of the same molecule?
Answer: Its relative viability is 1.07.

Question: And the relative viability (NCI-H2085; first compound 8 µM)?
Answer: Its relative viability is 0.953.

Question: What about the relative viability (ABC-1; first compound 0.253 µM) of the same molecule?
Answer: Its relative viability is 0.775.

Question: What about the relative viability (ABC-1; first compound 0.8 µM) of the same molecule?
Answer: Its relative viability is 0.817.

Question: And the relative viability (ABC-1; first compound 2.53 µM)?
Answer: Its relative viability is 0.583.

Question: What about the relative viability (ABC-1; first compound 8 µM) of the same molecule?
Answer: The relative viability was 0.509.

Question: And the relative viability (NCI-H23; first compound 0.08 µM)?
Answer: The relative viability was 0.248.

Question: And the relative viability (NCI-H23; first compound 0.253 µM)?
Answer: The relative viability was 0.315.

Question: And the relative viability (NCI-H23; first compound 0.8 µM)?
Answer: Its relative viability is 0.195.

Question: And the relative viability (NCI-H23; first compound 2.53 µM)?
Answer: The relative viability was 0.167.

Question: And the relative viability (NCI-H23; first compound 8 µM)?
Answer: The relative viability was 0.213.

Question: And the relative viability (CAL-12T; first compound 0.08 µM)?
Answer: The relative viability was 0.64.

Question: What about the relative viability (CAL-12T; first compound 0.253 µM) of the same molecule?
Answer: The relative viability was 0.587.

Question: What about the relative viability (CAL-12T; first compound 0.8 µM) of the same molecule?
Answer: The relative viability was 0.539.

Question: What about the relative viability (CAL-12T; first compound 2.53 µM) of the same molecule?
Answer: The relative viability was 0.511.

Question: What about the relative viability (CAL-12T; first compound 8 µM) of the same molecule?
Answer: The relative viability was 0.587.

Question: What about the relative viability (LCLC-103H; first compound 0.08 µM) of the same molecule?
Answer: Its relative viability is 0.743.

Question: And the relative viability (LCLC-103H; first compound 0.253 µM)?
Answer: Its relative viability is 0.778.

Question: What about the relative viability (LCLC-103H; first compound 0.8 µM) of the same molecule?
Answer: The relative viability was 0.733.

Question: And the relative viability (LCLC-103H; first compound 2.53 µM)?
Answer: The relative viability was 0.802.

Question: And the relative viability (LCLC-103H; first compound 8 µM)?
Answer: The relative viability was 0.686.

Question: What about the relative viability (NCI-H2347; first compound 0.08 µM) of the same molecule?
Answer: The relative viability was 0.782.

Question: And the relative viability (NCI-H2347; first compound 0.253 µM)?
Answer: Its relative viability is 0.689.

Question: And the relative viability (NCI-H2347; first compound 0.8 µM)?
Answer: The relative viability was 0.723.

Question: What about the relative viability (NCI-H2347; first compound 2.53 µM) of the same molecule?
Answer: The relative viability was 0.736.

Question: And the relative viability (NCI-H2347; first compound 8 µM)?
Answer: The relative viability was 0.744.

Question: What about the relative viability (NCI-H647; first compound 0.08 µM) of the same molecule?
Answer: The relative viability was 0.46.

Question: And the relative viability (NCI-H647; first compound 0.253 µM)?
Answer: Its relative viability is 0.26.

Question: What about the relative viability (NCI-H647; first compound 0.8 µM) of the same molecule?
Answer: Its relative viability is 0.245.

Question: What about the relative viability (NCI-H647; first compound 2.53 µM) of the same molecule?
Answer: The relative viability was 0.409.

Question: What about the relative viability (NCI-H647; first compound 8 µM) of the same molecule?
Answer: Its relative viability is 0.532.

— the supplement of paper PMC10307832
